Reference: PMC13203959, “New inhibitors of the Pseudomonas aeruginosa enzyme, PqsE, and methods assessing their potential to induce a conformational change via active site binding” (mSphere, 2026)
Where two headings read alike, the source gives them in different places.

Assays:
PqsE(S285A) [1] = molecular target: T1, PqsE(S285A) (Pseudomonas aeruginosa, UniProt P20581, S285A); assay: Differential scanning fluorimetry (DSF), PqsE(S285A); type: binding; details: compound 100 µM; for Tm of PqsE-HJ complex / ∆Tm, shift in melting temperature vs DMSO-treated control: PqsE(S285A) 2 µM
PqsE(S285D) = molecular target: T2, PqsE(S285D) (Pseudomonas aeruginosa, UniProt P20581, S285D); type: binding; details: PqsE(S285D) 2 µM, compound 100 µM
T2 construct: made in house

PqsE(WT) [2] = molecular target: T3, PqsE(WT) (Pseudomonas aeruginosa, UniProt P20581); assay: Differential scanning fluorimetry (DSF), PqsE(WT); type: binding; details: PqsE(WT) 2 µM, compound 100 µM
T3 construct: 6xHis (N); made in house; host or cells: E. coli BL21 (DE3)
Experimental: Compounds HJ1, HJ2, and HJ5 were tested for the ability to bind and shift the Tm of purified PqsE and PqsE variants using DSF as described previously with some modifications ([18]). Briefly, compounds in DMSO were diluted in assay buffer (50 mM Tris, 150 mM NaCl, 200 µM MnCl2, pH 8) to achieve a final concentration of 100 µM (1% DMSO). Compound solutions were transferred to the wells of a 96-well PCR plate (ThermoFisher), and control wells were prepared with 1% DMSO (negative control). SYPRO Orange Dye and PqsE solutions were diluted in assay buffer and subsequently added to the wells to reach final concentrations of 7× SYPRO Orange and 2 µM PqsE. Final volume in each well was 80 µL. Plates were sealed with transparent optical adhesive covers (ThermoFisher) prior to measurement of SYPRO Orange fluorescence (ex, 580 nm; em, 623 nm) in a QuantStudio 3 Real-Time PCR system (ThermoFisher) over an increasing temperature gradient from 25 to 90°C (temperature increased at a rate of 0.1°C/s). Tm was determined from first derivative plots of the raw fluorescence curves using the Prism 9.0 software.

PqsE(E182W) = molecular target: T4, PqsE(E182W) (Pseudomonas aeruginosa, UniProt P20581, E182W); type: binding; details: PqsE(E182W) 2 µM, compound 100 µM
T4 construct: made in house

PqsE(E182W/E280A) = molecular target: T5, PqsE(E182W/E280A) (Pseudomonas aeruginosa, UniProt P20581, E182W/E280A); type: binding; details: PqsE(E182W/E280A) 2 µM, compound 100 µM
T5 construct: made in house

PqsE(S285W) [3] = molecular target: T6, PqsE(S285W) (Pseudomonas aeruginosa, UniProt P20581, S285W); type: binding; details: compound 100 µM; for Tm of PqsE-HJ complex / ∆Tm, shift in melting temperature vs DMSO-treated control: PqsE(S285W) 2 µM
T6 construct: 6xHis (N); made in house; host or cells: E. coli BL21 (DE3)

PqsE(S285Y) = molecular target: T7, PqsE(S285Y) (Pseudomonas aeruginosa, UniProt P20581, S285Y); type: binding; details: PqsE(S285Y) 2 µM, compound 100 µM
T7 construct: made in house

PqsE(E280A) = molecular target: T8, PqsE(E280A) (Pseudomonas aeruginosa, UniProt P20581, E280A); type: binding; details: PqsE(E280A) 2 µM, compound 100 µM
T8 construct: made in house

PqsE(E182A) = molecular target: T9, PqsE(E182A) (Pseudomonas aeruginosa, UniProt P20581, E182A); type: binding; details: PqsE(E182A) 2 µM, compound 100 µM
T9 construct: made in house

PqsE(WT) [4] = molecular target: T3, PqsE(WT); assay: Esterase assay: inhibition of PqsE-catalyzed MU-butyrate hydrolysis; type: biochemical
Experimental: Purified PqsE, diluted in assay buffer (50 mM Tricine, 0.01% Triton X-100, pH 8.5), was added to the wells of an opaque 384-well plate at a final concentration of 125 nM. Test molecules were diluted in DMSO and added to the wells at the indicated concentrations (5% DMSO final). The plate was then incubated at room temperature for 5 min. MU-butyrate in assay buffer was added to the plate at a final concentration of 2 µM. The plate was incubated at room temperature for 20 min prior to measuring fluorescence (excitation: 360 nm and emission: 450 nm) to monitor the hydrolysis of MU-butyrate. All data were plotted in the Prism 9.0 program, and IC50 values were calculated from inhibition curves fit to the data.

PqsE(WT) [5] = molecular target: T3, PqsE(WT); details: 10 min trypsin
PqsE(S285A) [6] = molecular target: T1, PqsE(S285A); assay: Esterase assay: inhibition of MU-butyrate hydrolysis by PqsE(S285A); type: biochemical
[7] = system: wild-type P. aeruginosa PA14; assay: Pyocyanin assay, wild-type strain; type: cell-based, Pseudomonas aeruginosa; details: WT strain, ~17 h
Experimental: P. aeruginosa PA14 cultures were grown overnight in LB at 37°C with shaking. The saturated cultures were then diluted 1:1,000 into fresh LB containing test molecules in DMSO (final 1% DMSO). Cultures then grew for ~17 h at 37°C with shaking at 200 rpm. Next, 1 mL of each culture was collected and pelleted by centrifugation at 13,000 rpm for 3 min. The supernatant was carefully transferred to a cuvette, and the OD695 was measured in a Genesys 20 ThermoSpectronic spectrophotometer. The cell pellet was resuspended in 1 mL of PBS and then transferred into the wells of a clear 96-well plate at 100 µL per well. The OD600 was measured to assess cell density. Pyocyanin production (OD695) of the supernatants was normalized to cell density (OD600 of the resuspended cell pellets).

PqsE-RhlR interaction = molecular target: T10, PqsE-RhlR interaction (Pseudomonas aeruginosa, UniProt P20581); assay: PqsE-RhlR in vitro pull-down; type: binding; details: up to 100 µM, 1 µM 6xHis-PqsE(WT), RhlR-containing lysate
T10 construct: made in house; host or cells: Escherichia coli (PqsE purified; RhlR as crude lysate from a pET23a-rhlR strain grown with mBTL)
Experimental: RhlR was expressed following a previously established method ([18], [19]). Briefly, lysate was prepared from cultures of an Escherichia coli strain carrying rhlR on a pET23a plasmid that had been treated with the RhlR-solubilizing ligand, mBTL ([33]). The pull-down assay was conducted following a previously established method with some modifications ([18]). Briefly, purified 6xHis-PqsE(WT) was incubated with test molecules at the specified concentrations for 10 min at room temperature. The treated PqsE was then added to 100 µL of RhlR-containing lysate in lysis buffer (50 mM Tris-HCl, 150 mM NaCl, 20 mM imidazole, pH = 8.0) to a total final volume of 150 µL and a final PqsE concentration of 1 µM (final 0.6% DMSO). The mixtures were incubated at 4°C with rotation for 30 min before MagneHis Ni resin (Promega) was added (10 µL of settle volume), and incubation at 4°C with rotation was continued for 1 h. The Ni resin was then washed three times with lysis buffer, and then PqsE complexes were eluted with 50 µL elution buffer (50 mM Tris-HCl, 150 mM NaCl, 500 mM imidazole, pH = 8.0). The eluted proteins were then denatured in Laemmli sample buffer at 95°C and analyzed by SDS-PAGE.

PqsE(S285W) [8] = molecular target: T6, PqsE(S285W); type: biochemical; details: esterase assay

Cc1n[nH]c2c(C(=O)Nc3ccc(NC(=O)OC(C)(C)C)cc3)cccc12 [HJ2]
Tm of PqsE-HJ complex (PqsE(S285A) [1]): 67.9 °C | ∆Tm, shift in melting temperature vs DMSO-treated control (PqsE(S285A) [1]): 0.61 °C | Tm of PqsE-HJ complex (PqsE(S285D)): 67.0 °C | ∆Tm, shift in melting temperature vs DMSO-treated control (PqsE(S285D)): 0.14 °C | Tm of PqsE-HJ complex (PqsE(WT) [2]): 67.7 °C | ∆Tm, shift in melting temperature vs DMSO-treated control (PqsE(WT) [2]): 0.74 °C | Tm of PqsE-HJ complex (PqsE(E182W)): 73.9 °C | ∆Tm, shift in melting temperature vs DMSO-treated control (PqsE(E182W)): 0.48 °C | Tm of PqsE-HJ complex (PqsE(E182W/E280A)): 70.0 °C | ∆Tm, shift in melting temperature vs DMSO-treated control (PqsE(E182W/E280A)): 0.20 °C | Tm of PqsE-HJ complex (PqsE(S285W) [3]): 66.8 °C | ∆Tm, shift in melting temperature vs DMSO-treated control (PqsE(S285W) [3]): 0.07 °C | Tm of PqsE-HJ complex (PqsE(S285Y)): 68.2 °C | ∆Tm, shift in melting temperature vs DMSO-treated control (PqsE(S285Y)): 0.41 °C | Tm of PqsE-HJ complex (PqsE(E280A)): 67.1 °C | ∆Tm, shift in melting temperature vs DMSO-treated control (PqsE(E280A)): 0.61 °C | Tm of PqsE-HJ complex (PqsE(E182A)): 69.2 °C | ∆Tm, shift in melting temperature vs DMSO-treated control (PqsE(E182A)): -0.47 °C | inhibitory activity on enzymatic activity of PqsE (PqsE(WT) [4]; esterase assay, dilution series): virtually no effect

Cc1ccc(C(=O)Nc2ccc(NC(=O)OC(C)(C)C)cc2)c2[nH]ncc12 [HJ5]
band intensity of undigested protein (band 1) after trypsin exposure (PqsE(WT) [5]; increasing concentrations up to 100 µM): increases as the concentration of HJ5 increases | induction of PqsE(E182W)-like banding pattern (conformational change) upon tryptic digest (PqsE(WT) [5]; up to 100 µM, 10 µM PqsE(WT)): did not produce a banding pattern similar to that of PqsE(E182W) | Tm of PqsE-HJ complex (PqsE(S285A) [1]): 68.6 °C | ∆Tm, shift in melting temperature vs DMSO-treated control (PqsE(S285A) [1]): 1.35 °C | significance of shift in Tm compared to HJ2 (PqsE(S285A) [1]; PqsE(S285A)): neither HJ1 nor HJ5 induced significant shifts in Tm | Tm of PqsE-HJ complex (PqsE(S285D)): 67.3 °C | ∆Tm, shift in melting temperature vs DMSO-treated control (PqsE(S285D)): 0.48 °C | Tm of PqsE-HJ complex (PqsE(WT) [2]): 68.8 °C | ∆Tm, shift in melting temperature vs DMSO-treated control (PqsE(WT) [2]): 1.82 °C | Tm of PqsE-HJ complex (PqsE(E182W)): 75.5 °C | ∆Tm, shift in melting temperature vs DMSO-treated control (PqsE(E182W)): 2.05 °C | Tm of PqsE-HJ complex (PqsE(E182W/E280A)): 71.9 °C | ∆Tm, shift in melting temperature vs DMSO-treated control (PqsE(E182W/E280A)): 2.12 °C | increase of IC50 against PqsE(S285A) variant versus PqsE(WT) (PqsE(S285A) [6]; 20 min): approximately 10 fold | maximum level of inhibition of PqsE(S285A) (PqsE(S285A) [6]; % inhibition): approximately 10% | Tm of PqsE-HJ complex (PqsE(S285W) [3]): 67.5 °C | ∆Tm, shift in melting temperature vs DMSO-treated control (PqsE(S285W) [3]): 0.74 °C | significance of shift in Tm compared to HJ2 (PqsE(S285W) [3]; PqsE(S285W)): neither HJ1 nor HJ5 induced significant shifts in Tm | decrease in pyocyanin production compared to DMSO-treated WT strain ([7]; 100 µM): ~ 37% | inhibition at 50 µM ([7]; Pseudomonas aeruginosa, PA14, 50 µM, read-out: inhibition of pyocyanin production compared to DMSO-treated WT strain): ~30% | Tm of PqsE-HJ complex (PqsE(S285Y)): 68.2 °C | ∆Tm, shift in melting temperature vs DMSO-treated control (PqsE(S285Y)): 0.40 °C | Tm of PqsE-HJ complex (PqsE(E280A)): 67.7 °C | ∆Tm, shift in melting temperature vs DMSO-treated control (PqsE(E280A)): 1.21 °C | effect on PqsE-RhlR complex formation (PqsE-RhlR interaction): neither HJ1 nor HJ5 showed any effect on complex formation | Tm of PqsE-HJ complex (PqsE(E182A)): 70.6 °C | ∆Tm, shift in melting temperature vs DMSO-treated control (PqsE(E182A)): 1.00 °C | IC50 (PqsE(WT) [4]): 379 nM | maximum level of inhibition of PqsE(WT) (PqsE(WT) [4]; % inhibition): ~ 50% | effect of S285W substitution on binding/inhibition (PqsE(S285W) [8]): completely abrogated binding

CC(C)(C)CNC(=O)Nc1ccc(NC(=O)c2cccc3cn[nH]c23)cc1 [BB584, reference compound]
IC50 (PqsE(WT) [4]; 125 nM PqsE, 2 µM MU-butyrate, pH 8.5, read-out: IC50, inhibition of PqsE enzyme function (MU-butyrate hydrolysis)): 108 nM
